According to PubChem BioAssay (NCI):
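Where inhibition never reached the appropriate level, the endpoint shown equals the highest concentration tested. Otherwise, values were interpolated linearly from a five-concentration, 48-hour dose response in 96-well plates. The concentration for 50% growth inhibition is given as GI50. The concentration for full growth arrest is given as TGI.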

Assays:
Assay in all cases: inhibition of tumour cell growth, NCI panel, 48 h
SK-OV-3 ovarian = system: SK-OV-3 ovarian
SF-268 CNS = system: SF-268 CNS
M14 melanoma = system: M14 melanoma
UO-31 renal = system: UO-31 renal
CCRF-CEM leukemia = system: CCRF-CEM leukemia
A498 renal = system: A498 renal
K-562 leukemia = system: K-562 leukemia
OVCAR-8 ovarian = system: OVCAR-8 ovarian
RPMI-8226 leukemia = system: RPMI-8226 leukemia
MDA-MB-231 breast = system: MDA-MB-231 breast

SMILES | GI50 (SK-OV-3 ovarian) | TGI (SK-OV-3 ovarian) | GI50 (SF-268 CNS) | TGI (SF-268 CNS) | GI50 (M14 melanoma) | TGI (M14 melanoma) | GI50 (UO-31 renal) | TGI (UO-31 renal) | GI50 (CCRF-CEM leukemia) | TGI (CCRF-CEM leukemia) | GI50 (A498 renal) | TGI (A498 renal) | GI50 (K-562 leukemia) | TGI (K-562 leukemia) | GI50 (OVCAR-8 ovarian) | TGI (OVCAR-8 ovarian) | TGI (RPMI-8226 leukemia) | TGI (MDA-MB-231 breast) | GI50 (MDA-MB-231 breast) | GI50 (RPMI-8226 leukemia)
CCC[CH2][Sn]([CH2]CCC)([O]C(=O)c1cc(F)cc(F)c1)[O][Sn]([CH2]CCC)([CH2]CCC)[O]C(=O)c1cc(F)cc(F)c1 | 3.04 µM | 8.38 µM | 0.91 µM | 2.19 µM | 1.48 µM | 2.81 µM | 1.66 µM | 3.02 µM | 0.101 µM | 0.886 µM | 1.43 µM | 2.83 µM | 0.256 µM | 1.12 µM | 1.28 µM | 2.54 µM |  |  |  | 
OC1CCC[C@@H]1Sc1ccccc1 (some centres undefined) |  | > 100 µM |  | > 100 µM |  | > 100 µM |  | > 100 µM |  | > 100 µM |  | > 100 µM |  | > 100 µM |  | > 100 µM | > 100 µM |  |  | 
CCOC(=O)c1c2cccccc2n2c(=O)cc(C)nc12 |  |  |  | > 100 µM |  | > 100 µM |  | > 100 µM |  | > 100 µM |  | > 100 µM |  | > 100 µM |  | > 100 µM | > 100 µM |  |  | 
O=C(O)CCSC(=S)Nc1cccc(F)c1 |  | > 100 µM |  | > 100 µM |  | > 100 µM |  | > 100 µM |  |  |  | 77.7 µM |  | > 100 µM |  | > 100 µM | > 100 µM |  |  | 
O=C(O)CCSC(=O)Nc1ccccc1Cl |  | > 100 µM |  | > 100 µM |  | > 100 µM |  | > 100 µM |  | > 100 µM |  | > 100 µM |  | > 100 µM |  | > 100 µM | > 100 µM |  |  | 
COC(=O)C(=O)C(C(=O)C=C(C)C)C(=O)C(=O)Nc1nc2ccc([N+](=O)[O-])cc2s1 (centres undefined) |  | > 100 µM |  | > 100 µM |  | > 100 µM |  | > 100 µM |  | > 100 µM |  | 91 µM |  | > 100 µM |  | > 100 µM | > 100 µM |  |  | 
C=C1C(=O)OC2CC3(C)CCCC(C)C3=CC12 (centres undefined) |  | 56.1 µM |  | 23.1 µM |  | 16.1 µM |  | 12.5 µM |  | 4.53 µM |  | 18.7 µM |  | 6.61 µM |  | 37.3 µM |  | 26.9 µM |  | 
Cc1ccc(NC(=O)CC/C(CC(=O)C(C)(C)C)=N\Nc2ccc([N+](=O)[O-])cc2[N+](=O)[O-])cc1C |  | > 100 µM |  | > 100 µM |  | 20.4 µM |  | > 100 µM |  | 98 µM |  |  |  | > 100 µM |  | > 100 µM |  |  |  | 
COc1cc(/C=C\c2ccc(OC(C)=O)cc2)cc(OC)c1OC |  | > 100 µM |  | > 100 µM |  | > 100 µM |  | 28.7 µM |  | > 100 µM |  | 78.4 µM |  | > 100 µM |  | > 100 µM | > 100 µM |  |  | 
COc1cc(CC(C(=O)O)C(=O)O)c(OC)cc1CC(C(=O)O)C(=O)O |  | > 100 µM |  | > 100 µM |  | > 100 µM |  | > 100 µM |  | > 100 µM |  | > 100 µM |  | > 100 µM |  | > 100 µM | > 100 µM |  |  | 
CCCN1C(=O)/C(=C/c2ccc(O)cc2)SC1=Nc1ccc(OC)cc1 | 18.1 µM | 41.9 µM | 17.3 µM | 74.9 µM | 26.8 µM | 60.6 µM | 25.7 µM | > 100 µM |  |  | 9.61 µM | 22.7 µM | 12.5 µM | > 100 µM | 18.2 µM | 37.1 µM | 42 µM | 31 µM | 14.1 µM | 12.4 µM
CC(=O)O[C@H]1C(=O)[C@@]2(C)[C@H]([C@H](OC(=O)c3ccccc3)[C@@]3(O)C[C@H](O)C(C)=C1C3(C)C)[C@]1(OC(C)=O)CO[C@@H]1C[C@@H]2O |  | 69.1 µM |  | > 100 µM |  | 74.8 µM |  | > 100 µM |  | > 100 µM |  |  |  | > 100 µM |  | > 100 µM | > 100 µM | > 100 µM |  | 
CC1=C2[C@H](c3ccccc3)C3C=CC2(c2ccccc23)N(C(=O)C(c2ccccc2)c2ccccc2)C1=O (some centres undefined) |  | > 100 µM |  | > 100 µM |  | > 100 µM |  | > 100 µM |  | > 100 µM |  | > 100 µM |  | > 100 µM |  | > 100 µM |  |  |  | 
COC(=O)C(C(=O)C(=O)Nc1ccc(OC)cc1[N+](=O)[O-])c1nc2cc(C)c(C)cc2[nH]c1=O (centres undefined) |  | > 100 µM |  | > 100 µM |  | > 100 µM |  | > 100 µM |  | > 100 µM |  | > 100 µM |  | > 100 µM |  | > 100 µM |  |  |  | 
COCOCC[C@@H]1CC=CC(NC(=O)OCc2ccccc2)C1/C=C/C(=O)CCC1OCCO1 (some centres undefined) |  | > 100 µM |  | 99 µM |  | 88.4 µM |  | > 100 µM |  | 75.7 µM |  | > 100 µM |  | > 100 µM |  | 39.3 µM | 63.5 µM |  |  | 
C/C(CCn1[nH]c(=O)ccc1=O)=N\Nc1ccc([N+](=O)[O-])cc1[N+](=O)[O-] |  |  |  | > 100 µM |  | > 100 µM |  | > 100 µM |  | > 100 µM |  | > 100 µM |  | > 100 µM |  | > 100 µM | > 100 µM |  |  | 
COc1ccc(CNc2cnc3cc(N)cc(N)c3n2)cc1 | 82.1 µM | > 100 µM | 28.9 µM | 81.8 µM | 20.5 µM | 43.9 µM | 16.3 µM | 33.7 µM | 24.1 µM | > 100 µM |  |  | 10.7 µM | 29.3 µM | 19.7 µM | 39.8 µM | 82.3 µM | 29.6 µM | 14.2 µM | 23 µM
CCCCCCCCCOC(=S)NCCCCC |  | 87.7 µM |  | > 100 µM |  | 87.9 µM |  | 51.1 µM |  | 63.4 µM |  | 59 µM |  | 84.1 µM |  | > 100 µM | 40 µM |  |  | 
CCOC(=O)NC(=O)c1cn(CCN2CCNCC2)c(=O)[nH]c1=O |  | > 100 µM |  | > 100 µM |  | > 100 µM |  |  |  | > 100 µM |  |  |  | > 100 µM |  | > 100 µM | > 100 µM |  |  | 
COc1ccc(/C=c2/sc3n(c2=O)NC(c2ccc(Cl)cc2)NN=3)cc1 (centres undefined) |  | > 100 µM |  | > 100 µM |  | > 100 µM |  | > 100 µM |  | > 100 µM |  |  |  | > 100 µM |  | > 100 µM |  |  |  | 
